Assay in all cases: NCI tumour cell line growth inhibition, 48 h
For experiment [1], the system named is 786-0.
In experiment [2] the test system is BT-549.
Experiment [3] has as its system COLO 205.
Experiment [4] has as its system HCC 2998.
Experiment [5] has as its system HCT-116.
Experiment [6] concerns HCT-15.
In experiment [7] the test system is HOP-92.
Experiment [8] has as its system KM12.
Experiment [9] concerns M14.
Experiment [10] deals with MDA-MB-231.
For experiment [11], the system named is Malme-3M.
Experiment [12] deals with NCI-H23.
Experiment [13] relates to NCI-H460.
For experiment [14], the system named is OVCAR-5.
The subject of experiment [15] is SF-295.
In experiment [16] the test system is SF-539.
Experiment [17] relates to SK-MEL-28.
For experiment [18], the system named is SK-MEL-5.
Experiment [19] has as its system K562.

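Cultured in 96-well plates, cells were exposed to test compound for 48 hours across five concentrations. GI50 marks 50% less growth.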 Activity calls are given as the source filed them. No stated cut-off is given here; in the data, active = GI50 up to about 1.1 µM and inactive = higher.

`C=C(C)C12OC1[C@@]1(C)C(=CC2=O)CCC(O)[C@@H]1C` (stereo not given in full): the GI50 was 1.64 µM (inactive) in experiment [1]; 4.19 µM (inactive) in [2]; 1.61 µM (inactive) in experiment [3]; 0.718 µM (active) in [4]; 1.15 µM (inactive) in [5]; 1.92 µM in experiment [6]. The GI50 in experiment [7] was 16.7 µM (inactive); in experiment [8], 2.44 µM (inactive); in experiment [9] it was 3.72 µM (inactive); in [10] it was 1.52 µM (inactive); in experiment [11] it was 3.38 µM (inactive); in experiment [12], 2.26 µM (inactive). Further, the GI50 in [13] was 0.743 µM (active); in [14] it was 8.51 µM (inactive); in experiment [15], 2.58 µM (inactive); in experiment [16], 1.97 µM (inactive); in [17] it was 3.89 µM (inactive); in experiment [18] it was 3.22 µM (inactive).
For `COc1cc(C(=O)Oc2ccc3c(c2)OCO3)cc(OC)c1OC`, the GI50 in [1] is > 100 µM (inactive); in experiment [2], > 100 µM (inactive); in experiment [3], > 100 µM (inactive); in experiment [4], > 100 µM (inactive); in experiment [6], above 100 µM; in experiment [7], > 100 µM (inactive). For the same compound, the GI50 in experiment [8], in experiment [9], in experiment [10], in [11], in experiment [12] and in experiment [13] was > 100 µM (inactive) each time. For the same compound, the GI50 in experiment [14], in experiment [15], in experiment [16], in experiment [17] and in experiment [18] was > 100 µM (inactive) throughout.
For `O=C(N/S(=N/S(=O)(=O)c1ccc(Br)cc1)C(Cl)(Cl)Cl)c1ccccc1` (stereo not given), the GI50 was > 100 µM (inactive) in [1]; > 100 µM (inactive) in experiment [2]; > 100 µM (inactive) in [3]; > 100 µM (inactive) in [5]; above 100 µM in experiment [6]; 26.2 µM (inactive) in experiment [7]. In addition, the GI50 in [19], in experiment [8], in experiment [9], in experiment [10], in [11] and in experiment [12] was > 100 µM (inactive) each time. Further, the GI50 in [13], in [14], in experiment [15], in [16], in [17] and in [18] was > 100 µM (inactive) throughout.
`O=c1c(-c2ccccc2)nnc2n(Cc3ccccc3)c3ccccc3n12`: the GI50 in [1] was > 100 µM (inactive); in experiment [2], > 100 µM (inactive); in experiment [3], > 100 µM (inactive); in experiment [4], > 100 µM (inactive); in experiment [5] it was > 100 µM (inactive); in experiment [6] it was above 100 µM. For the same compound, the GI50 in experiment [7] is 28.6 µM (inactive); in [8] it was > 100 µM (inactive); in experiment [9] it was > 100 µM (inactive); in experiment [10], > 100 µM (inactive); in [11], > 100 µM (inactive); in [12], > 100 µM (inactive). The GI50 was > 100 µM (inactive) in experiment [13]; > 100 µM (inactive) in experiment [14]; > 100 µM (inactive) in experiment [15]; 94.8 µM (inactive) in experiment [16]; > 100 µM (inactive) in experiment [17]; > 100 µM (inactive) in experiment [18].
Consider `CCOP(=O)(OCC)/C(C#N)=C/c1cn(C)cn1`, for which the GI50 in experiment [2] is > 100 µM (inactive); in experiment [3], > 100 µM (inactive); in [4], > 100 µM (inactive); in experiment [6], above 100 µM; in experiment [7], > 100 µM (inactive); in [19] it was > 100 µM (inactive). The GI50 in experiment [8], in [9], in experiment [10], in [11], in [12] and in experiment [13] was > 100 µM (inactive) each time. For the same compound, the GI50 in experiment [14] was > 100 µM (inactive); in experiment [15], > 100 µM (inactive); in [16] it was > 100 µM (inactive); in experiment [17], > 100 µM (inactive); in [18] it was > 10 µM (inactive).
Turning to `COc1ccc(C2=C(N)c3ccccc3C2=O)cc1`, the GI50 was 52.1 µM (inactive) in experiment [1]; 48.6 µM (inactive) in experiment [2]; > 100 µM (inactive) in [3]; > 100 µM (inactive) in [4]; 87.5 µM (inactive) in [5]; above 100 µM in experiment [6]. Also, the GI50 in [7] is 27.9 µM (inactive); in experiment [8], > 100 µM (inactive); in [9] it was > 100 µM (inactive); in experiment [10], 32.5 µM (inactive); in experiment [11], > 100 µM (inactive); in [12], 39.5 µM (inactive). For the same compound, the GI50 in experiment [13] was > 100 µM (inactive); in [14] it was > 100 µM (inactive); in experiment [15], 37.3 µM (inactive); in experiment [16] it was 40.9 µM (inactive); in experiment [17] it was > 100 µM (inactive); in [18] it was > 100 µM (inactive).
Consider `CCCCNC(=S)Nc1nc(C(=O)NNS(=O)(=O)c2ccccc2)cs1`, for which the GI50 in experiment [1] was > 100 µM (inactive); in experiment [2], 32.7 µM (inactive); in [3] it was 17.9 µM (inactive); in experiment [4] it was 30.5 µM (inactive); in [5] it was 26.2 µM (inactive); in experiment [6], 36.2 µM. Also, the GI50 in experiment [7] is 64.7 µM (inactive); in [19], 49.1 µM (inactive); in [8], 39.7 µM (inactive); in experiment [9], 40.1 µM (inactive); in experiment [10], 29.4 µM (inactive); in [11] it was 28.9 µM (inactive). In addition, the GI50 in [12] is 44 µM (inactive); in [14], 42 µM (inactive); in [15], 36.2 µM (inactive); in [16] it was 33.6 µM (inactive); in [18] it was 17 µM (inactive).
`Cn1c(-c2ccccc2)c2cc3nc4ccccc4nc3cc2c1-c1ccccc1`: the GI50 in experiment [2] is 21.6 µM (inactive); in experiment [3], 2.26 µM (inactive); in experiment [5], 23.2 µM (inactive); in experiment [6] it was 4.65 µM; in [7], 25.3 µM (inactive); in experiment [19], 17.3 µM (inactive). Moreover, the GI50 in experiment [8] is 11.6 µM (inactive); in [9], 6.21 µM (inactive); in experiment [10], 24.2 µM (inactive); in experiment [11] it was 30.1 µM (inactive); in experiment [12], 7.14 µM (inactive); in experiment [13], 4.19 µM (inactive). In addition, the GI50 in [14] was 52.2 µM (inactive); in [15], 14.4 µM (inactive); in [16], 17.4 µM (inactive); in experiment [17], 34.9 µM (inactive); in [18] it was 1.67 µM (inactive).
